Experimental data as given in ChEMBL document CHEMBL1156236, “Trypanoside, anti-tuberculosis, leishmanicidal, and cytotoxic activities of tetrahydrobenzothienopyrimidines” (Bioorg Med Chem, 2010).
Converted amounts (≈) assume the structure as drawn.

Legend:
[1] = tested on: SK-MEL-5; experiment: Cytotoxicity against human SK-MEL-5 cells; format: functional
[2] = tested on: SR; experiment: Cytotoxicity against human SR cells; format: functional
[3] = tested on: MDA-MB-435; experiment: Cytotoxicity against human MDA-MB-435 cells; format: functional
[4] = tested on: Leishmania amazonensis; experiment: Antileishmanial activity against Leishmania amazonensis MHOM/BR/76/LTB-012 amastigotes infected BALB/c mouse macrophages after 48 hrs by MTT assay; format: functional, organism-based; details: MHOM/BR/76/LTB-012, 48 h
[5] = tested on: UO-31; experiment: Cytotoxicity against human UO31 cells; format: functional; details: read-out: LC50 (the source's name)
[6] = tested on: Mycobacterium tuberculosis; experiment: Antitubercular activity against Mycobacterium tuberculosis H37Rv ATCC 27294 after 7 days by microplate alamar blue assay; format: functional; details: H37Rv ATCC 27294, 168 h
[7] = tested on: MDA-MB-468; experiment: Cytotoxicity against human MDA-MB-468 cells; format: functional
[8] = tested on: SNB-19; experiment: Cytotoxicity against human SNB19 cells; format: functional
[9] = tested on: SF-295; experiment: Cytotoxicity against human SF295 cells; format: functional
[10] = tested on: K562; experiment: Cytotoxicity against human K562 cells; format: functional
[11] = Cytotoxicity against BALB mouse 3T3 cells; format: cell-based; details: BALB 3T3 cells
[12] = tested on: SK-MEL-2; experiment: Cytotoxicity against human SK-MEL-2 cells; format: functional
[13] = tested on: MOLT-4; experiment: Cytotoxicity against human MOLT4 cells; format: functional
[14] = tested on: CAKI-1; experiment: Cytotoxicity against human Caki1 cells; format: functional
[15] = tested on: NCI-H23; experiment: Cytotoxicity against human NCI-H23 cells; format: functional
[16] = tested on: A498; experiment: Cytotoxicity against human A498 cells; format: functional
[17] = tested on: RXF 393; experiment: Cytotoxicity against human RXF393 cells; format: functional
[18] = tested on: HCT-116; experiment: Cytotoxicity against human HCT116 cells; format: functional
[19] = Selectivity index, ratio of IC50 for african green monkey Vero cells to MIC for Mycobacterium tuberculosis H37Rv ATCC 27294 by microplate alamar blue assay; format: functional
[20] = tested on: ACHN; experiment: Cytotoxicity against human ACHN cells; format: functional
[21] = tested on: TK-10; experiment: Cytotoxicity against human TK10 cells; format: functional
[22] = tested on: NCI-H460; experiment: Cytotoxicity against human NCI-H460 cells; format: functional
[23] = tested on: Trypanosoma cruzi; experiment: Antitrypanosomal activity against Trypanosoma cruzi tulahuen C4 trypomastigotes infected in african green monkey Vero cells assessed as CPRG cleavage after 120 hrs by microplate reader; format: functional, organism-based
[24] = tested on: Leishmania amazonensis; experiment: Antileishmanial activity against Leishmania amazonensis Lma CL1 amastigotes infected BALB/c mouse macrophages after 48 hrs by Giemsa staining method; format: functional, organism-based; details: Lma CL1, 48 h
[25] = tested on: Leishmania braziliensis; experiment: Antileishmanial activity against Leishmania braziliensis MHOM/PE/PER006 promastigote infected BALB/c mouse macrophages after 48 hrs by Giemsa staining method; format: functional, organism-based; details: MHOM/PE/PER006, 48 h
[26] = tested on: NCI-H226; experiment: Cytotoxicity against human NCI-H226 cells; format: functional
[27] = tested on: HT-29; experiment: Cytotoxicity against human HT-29 cells; format: functional
[28] = tested on: UACC-257; experiment: Cytotoxicity against human UACC257 cells; format: functional
[29] = tested on: OVCAR-8; experiment: Cytotoxicity against human OVCAR8 cells; format: functional
[30] = tested on: PC-3; experiment: Cytotoxicity against human PC3 cells; format: functional
[31] = tested on: OVCAR-5; experiment: Cytotoxicity against human OVCAR5 cells; format: functional
[32] = tested on: 786-0; experiment: Cytotoxicity against human 786-0 cells; format: functional
[33] = tested on: A549; experiment: Cytotoxicity against human A549 cells; format: functional
[34] = tested on: OVCAR-3; experiment: Cytotoxicity against human OVCAR-3 cells; format: functional
[35] = tested on: T47D; experiment: Cytotoxicity against human T47D cells; format: functional
[36] = tested on: DU-145; experiment: Cytotoxicity against human DU145 cells; format: functional
[37] = tested on: HCT-15; experiment: Cytotoxicity against human HCT15 cells; format: functional
[38] = tested on: HOP-92; experiment: Cytotoxicity against human HOP92 cells; format: functional
[39] = tested on: EKVX; experiment: Cytotoxicity against human EKVX cells; format: functional
[40] = tested on: M14; experiment: Cytotoxicity against human M14 cells; format: functional
[41] = tested on: Leishmania peruviana; experiment: Antileishmanial activity against Leishmania peruviana MHOM/PE/LCA08 promastigote infected BALB/c mouse macrophages after 48 hrs by Giemsa staining method; format: functional, organism-based; details: MHOM/PE/LCA08, 48 h
[42] = tested on: SN12C; experiment: Cytotoxicity against human SN12C cells; format: functional
[43] = tested on: SW-620; experiment: Cytotoxicity against human SW620 cells; format: functional
[44] = tested on: Malme-3M; experiment: Cytotoxicity against human MALME-3M cells; format: functional
[45] = read-out: LC50 (the source's name)

SMILES: C(=N\Nc1ncnc2sc3c(c12)CCCC3)/c1ccccn1
- GI50 [1]: 0.332 µM
- TGI [1]: 1.72 µM
- CC50 [1, 45]: 23.6 µM
- GI50 [2]: 0.368 µM
- TGI [2]: 0.953 µM
- CC50 [2, 45]: > 100 µM
- GI50 [3]: 0.477 µM
- TGI [3]: 25.1 µM
- CC50 [3, 45]: > 100 µM
- IC50 [4]: 0.5 µM
- CC50 [5]: 63 µM
- MIC [6]: 145 µM (≈ 44.9 µg/mL)
- GI50 [7]: 0.2 µM
- TGI [7]: 0.505 µM
- CC50 [7, 45]: 41 µM
- GI50 [8]: 0.767 µM
- TGI [8]: 34.1 µM
- CC50 [8, 45]: > 100 µM
- GI50 [9]: 0.313 µM
- TGI [9]: 12.1 µM
- CC50 [9, 45]: > 100 µM
- GI50 [10]: 0.16 µM
- TGI [10]: 10.8 µM
- CC50 [10, 45]: > 100 µM
- GI50 [11]: 0.04 µM
- GI50 [12]: 7.51 µM
- TGI [12]: 25.5 µM
- CC50 [12, 45]: 67.8 µM
- GI50 [13]: 0.261 µM
- TGI [13]: 0.774 µM
- CC50 [13, 45]: > 100 µM
- GI50 [14]: 0.313 µM
- TGI [14]: 14.8 µM
- CC50 [14, 45]: > 100 µM
- GI50 [15]: 0.705 µM
- TGI [15]: 34.3 µM
- CC50 [15, 45]: > 100 µM
- GI50 [16]: 0.428 µM
- TGI [16]: 8.81 µM
- CC50 [16, 45]: 37.2 µM
- GI50 [17]: 0.423 µM
- TGI [17]: 10.6 µM
- CC50 [17, 45]: 45.3 µM
- GI50 [18]: 0.166 µM
- TGI [18]: 14.2 µM
- CC50 [18, 45]: 67.4 µM
- Ratio IC50 [19]: 0.2
- GI50 [20]: 0.313 µM
- TGI [20]: 11 µM
- CC50 [20, 45]: > 100 µM
- GI50 [21]: 0.486 µM
- TGI [21]: 56.6 µM
- CC50 [21, 45]: > 100 µM
- GI50 [22]: 0.4 µM
- TGI [22]: 1.73 µM
- CC50 [22, 45]: 31.1 µM
- IC50 [23]: 3.9 µM
- IC50 [24]: > 2 µM
- IC50 [25]: 0.6 µM
- GI50 [26]: 0.385 µM
- TGI [26]: 16.2 µM
- CC50 [26, 45]: > 100 µM
- GI50 [27]: 0.1 µM
- LC50 (lethal concentration, 50% cell kill) [27]: 44.9 µM
- TGI [27]: 15.1 µM
- GI50 [28]: 0.355 µM
- CC50 [28, 45]: 41.7 µM
- GI50 [29]: 0.481 µM
- TGI [29]: > 1 µM
- CC50 [29, 45]: > 0.1 µM
- GI50 [30]: 0.431 µM
- TGI [30]: 71.1 µM
- CC50 [30, 45]: > 100 µM
- GI50 [31]: 0.823 µM
- TGI [31]: 31.4 µM
- CC50 [31, 45]: > 0.1 µM
- GI50 [32]: 0.333 µM
- TGI [32]: 0.947 µM
- CC50 [32, 45]: 44.4 µM
- GI50 [33]: 0.389 µM
- TGI [33]: 14.9 µM
- CC50 [33, 45]: 70 µM
- GI50 [34]: 0.109 µM
- TGI [34]: 14.5 µM
- CC50 [34, 45]: 43.9 µM
- GI50 [35]: 0.0764 µM
- TGI [35]: 28 µM
- CC50 [35, 45]: > 100 µM
- GI50 [36]: 0.37 µM
- LC50 [36]: 51.6 µM
- TGI [36]: 15.1 µM
- GI50 [37]: 0.45 µM
- TGI [37]: 27 µM
- CC50 [37, 45]: > 100 µM
- GI50 [38]: 0.417 µM
- TGI [38]: 31 µM
- CC50 [38, 45]: > 100 µM
- GI50 [39]: 0.317 µM
- TGI [39]: 20.5 µM
- CC50 [39, 45]: > 100 µM
- GI50 [40]: 0.25 µM
- TGI [40]: 0.599 µM
- CC50 [40, 45]: 33.4 µM
- IC50 [41]: 0.7 µM
- GI50 [42]: 0.426 µM
- TGI [42]: 15.3 µM
- CC50 [42, 45]: 81 µM
- GI50 [43]: 0.561 µM
- TGI [43]: 17.9 µM
- CC50 [43, 45]: 59.5 µM
- GI50 [44]: 0.275 µM
- TGI [44]: 10.3 µM
- CC50 [44, 45]: 51.4 µM
